{"source": "patent US20150190369A1", "about": "“QUERCETIN-3-GLUCOSIDE AND USES THEREOF” (priority 2012, published 2015)", "key": {"[1]": {"tested_on": "hepatocyte nuclear factor 1α (HNF-1α)", "conditions": "cited from earlier work"}, "PCSK9 gene": {"tested_on": "PCSK9 gene", "conditions": "cited from earlier work"}, "LDLR [2]": {"tested_on": "LDLR", "assay": "Semi-quantitative immunoblotting for LDLR protein in Huh7 cell lysates", "type": "cell-based, human", "conditions": "Huh7, at the concentrations of Q3G discussed", "description": "At passage, Huh7 cells were routinely seeded at sub-confluence (˜10^6 cells/10-cm dish) in Dulbecco's modified Eagle's medium (DMEM) containing 10% fetal bovine serum (FBS) or LPDS (for experiments) and 50 μg/ml gentamycin. They were incubated overnight at 37° C., in a humidified 5% CO2-95% air atmosphere. Cells were treated or not with Q3G at defined concentrations and for defined lengths of time. Media were collected and centrifuged at 200 g for 5 min to sediment suspended cells; supernatants were collected and supplemented with 0.33 volumes of a 3×-concentrated PIC. Cell monolayers were rinsed with ice-cold phosphate-buffered saline (PBS); they were overlaid with […] the RIPA lysis buffer (50 mM Tris-HCl, pH 8, 150 mM NaCl, 1% NP-40, 0.5% Na-deoxycholate and 0.1% SDS) supplemented with 1× PIC. After 20 min in an ice bath, the lysates were centrifuged at 14,000 g and 4° C. for 20 min, and supernatants were collected. Conditioned media and lysates were stored at −20° C. until analysis.\nCell lysates were fractionated by SDS-PAGE and electrophoretically transferred onto a polyvinylidene fluoride membrane. The membrane was incubated with a goat antihuman LDLR, rabbit anti-PCSK9, or rabbit anti-SREBP-2 polyclonal antibody at 1:1000, 1:1500, and 1:200 dilutions, respectively, and then with a HRP-conjugated heterospecific secondary antibody against the primary Igs at a 1:2000 dilution. It was probed for HRP reaction using the Western Lightning Chemiluminescence Reagent Plus a chemiluminescence-based revelation kit. The signal was captured on X-ray film and immunoreactive bands analyzed by densitometry on a Syngene's ChemiGenius^2XE Bio Imaging System (Cambridge, Mass.) within the dynamic range of the instrument. The membrane was stripped and reprobed with the anti-β-actin monoclonal primary antibody at 1:20,000 dilution and HRP-conjugated rabbit anti-mouse IgG secondary antibody at a 1:5000 dilution. The densitometric values of β-actin bands were using for normalization of experimental samples.\nHuh7 cells, hepatocyte derived cellular carcinoma cells, were incubated for 24 h in medium containing 10% lipoprotein-depleted serum (LPDS) and 0 to 10 μM Q3G. The level of LDLR mRNA was measured by quantitative real-time RT-PCR; that of the LDLR protein by semi-quantitative immunoblotting. Exposure to Q3G increased the intracellular content of LDLR mRNA in a concentration-dependent manner; the increase reached a 2× maximum at 2 μM (P<0.01, relative to no Q3G) (FIG. 3A). The content of the corresponding protein followed a similar pattern, but reached a 4× maximum at 4 μM (P<0.005) (FIG. 3B).\nThe kinetics of cellular accumulation of LDLR and PCSK9 at 2 μM Q3G was also examined: PCSK9 accumulation in the cells began after a 3-h lag; that of LDLR after 6-h lag (FIG. 6).\nStatins induce expression of LDLR and PCSK9. […] We examined whether, at a 5 μM concentration of Q3G, simvastatin at 0.2 and 1 μM could further up regulate LDLR expression in Huh7 cells; and, inversely, whether the flavonol can reduce statin-stimulated PCSK9 secretion secreted by Huh7 cells."}, "Apo B": {"tested_on": "Apo B", "conditions": "Caco-2 cells, 5-30 μM; cited from earlier work"}, "PCSK9": {"tested_on": "PCSK9", "assay": "ELISA for secreted PCSK9 in conditioned media of Huh7 cells", "type": "cell-based, human", "conditions": "Huh7, at the concentrations used for Q3G", "procedure": "Media were collected and PCSK9 levels therein were determined by ELISA.\nAt passage, Huh7 cells were routinely seeded at sub-confluence (˜10^6 cells/10-cm dish) in Dulbecco's modified Eagle's medium (DMEM) containing 10% fetal bovine serum (FBS) or LPDS (for experiments) and 50 μg/ml gentamycin. They were incubated overnight at 37° C., in a humidified 5% CO2-95% air atmosphere. Cells were treated or not with Q3G at defined concentrations and for defined lengths of time. Media were collected and centrifuged at 200 g for 5 min to sediment suspended cells; supernatants were collected and supplemented with 0.33 volumes of a 3×-concentrated PIC. Cell monolayers were rinsed with ice-cold phosphate-buffered saline (PBS); they were overlaid with 0.5 of the RIPA lysis buffer (50 mM Tris-HCl, pH 8, 150 mM NaCl, 1% NP-40, 0.5% Na-deoxycholate and 0.1% SDS) supplemented with 1× PIC. After 20 min in an ice bath, the lysates were centrifuged at 14,000 g and 4° C. for 20 min, and supernatants were collected. Conditioned media and lysates were stored at −20° C. until analysis.\nThe assays for PCSK9 and insulin were conducted as prescribed by kit manufacturers, using a Thermo Scientific plate reader. For example, PCSK9 levels in conditioned media were measured using the human PCSK9 ELISA kit from Circulex, as specified the manufacturer. The assay was a sandwich immunoassay using two antibodies (A and B) recognizing different PCSK9 epitopes. Briefly, aliquot of diluted media were overlaid on wells coated with anti-PCSK9 antibody A. After 1-h incubation, the wells were washed, overlaid with a solution of HRP-conjugated anti-PCSK9 antibody B, and incubated for 1 h. They were washed again, and overlaid with a solution of tetra-methylbenzidine as a chromogenic substrate for HRP. After 15 min, the reaction was stopped with ammonium sulfate and the absorbance of the reaction mixtures measured by spectrophotometry at 450 nm. All the steps were performed at room temperature. Standards consisted of recombinant human PCSK9."}, "LDLR [3]": {"tested_on": "LDLR", "conditions": "HepG2 hepatocytes, 75 μM; cited from earlier work"}}}
{"smiles": "COc1ccc2cc3[n+](cc2c1OC)CCc1cc2c(cc1-3)OCO2", "note": "[Berberine]", "values": [{"measurement": "expression of HNF-1α", "setting": "[1]", "value": "decreased expression"}, {"measurement": "PCSK9 gene transcription", "setting": "PCSK9 gene", "value": "reduces"}]}
{"smiles": "O=c1c(O)c(-c2ccc(O)c(O)c2)oc2cc(O)cc(O)c12", "note": "[quercetin aglycone, quercetin]", "values": [{"measurement": "increase in LDLR level", "setting": "LDLR [2]", "value": "not observed"}, {"measurement": "Apo B secretion", "setting": "Apo B", "value": "inhibit"}, {"measurement": "effect on PCSK9 secretion", "setting": "PCSK9", "value": "not observed"}, {"measurement": "effect on PCSK9 secretion", "setting": "PCSK9; listed as aglycone form of quercetin", "value": "failed to affect PCSK9 secretion"}, {"measurement": "LDLR expression", "setting": "LDLR [3]", "value": "up-regulation"}]}
